Patent US11358962B2, “2-hetaryl imidazol[1,2-a]pyridine derivatives” (Hoffmann-La Roche Inc., priority 2013, dated 2022)
Where a name gives a salt, the structure may show the parent alone.

tested on: native tau aggregates; test: TAU radioligand in vitro displacement assay ([3H]T808, autoradiography on human AD brain sections); format: binding; conditions: compound 10 nM, radioligand [3H]T808 10 nM
Procedure, shortened: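 Displacement of 10 nM [3H]T808 from 10 μm human AD brain cryosections by test compounds at various concentrations, 30 min at room temperature in 50 mM Tris pH 7.4, then cold washes. Autoradiography after 5-day exposure; specific binding = ROI signal minus white-matter signal, expressed as % displacement.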

Structure (SMILES) | % displacement of [3H]T808 (10 nM) at 10 nM
CNc1ccn2cc(-c3ccc(OCCF)cc3)nc2c1 [Example 109, 2-[4-(2-Fluoroethoxy)phenyl]-N-methylimidazo[1,2-a]pyridin-7-amine] | 40%
CNc1ccn2cc(-c3ccc(N(C)Cc4ccccc4)cc3)nc2c1 [Example 110, 2-(4-(benzyl(methyl)amino)phenyl)-N-methylimidazo[1,2-a]pyridin-7-amine] | 14%
CNc1ccn2cc(-c3sccc3Br)nc2c1 [Example 111, N-[2-(3-Bromo-thiophen-2-yl)-imidazo[1,2-a]pyridin-7-yl]-methyl-amine] | 17%
CNc1ccn2cc(-c3sccc3Cl)nc2c1 [Example 112, N-[2-(3-Chloro-thiophen-2-yl)-imidazo[1,2-a]pyridin-7-yl]-methyl-amine] | 6%
CNc1ccn2cc(-c3ccc(OC(F)F)cc3)nc2c1 [Example 113, N-[2-(4-Difluoromethoxy-phenyl)-imidazo[1,2-a]pyridin-7-yl]-methyl-amine] | 48%
CNc1ccn2cc(-c3ccc(Br)cc3)nc2c1 [Example 114, N-[2-(4-Bromo-phenyl)-imidazo[1,2-a]pyridin-7-yl]-methyl-amine] | 33%
CNc1ccn2cc(-c3ccc(C)o3)nc2c1 [Example 115, Methyl-[2-(5-methyl-furan-2-yl)-imidazo[1,2-a]pyridin-7-yl]-amine] | 58%
CNc1ccn2cc(-c3cc4ccccc4o3)nc2c1 [Example 116, N-[2-(Benzofuran-2-yl)-imidazo[1,2-a]pyridin-7-yl]-methyl-amine] | 47%
CNc1ccn2cc(-c3cc(C)nn3C)nc2c1 [Example 117, N-[2-(2,5-Dimethyl-2H-pyrazol-3-yl)-imidazo[1,2-a]pyridin-7-yl]-methyl-amine] | 18%
CNc1ccn2cc(-c3ccc(N4CCCCC4)cc3)nc2c1 [Example 118, Methyl-[2-(4-piperidin-1-yl-phenyl)-imidazo[1,2-a]pyridin-7-yl]-amine] | 20%
CNc1ccn2cc(-c3ccc4c(c3)NC(=O)CO4)nc2c1 [Example 119, 6-(7-Methylamino-imidazo[1,2-a]pyridin-2-yl)-4H-benzo[1,4]oxazin-3-one] | 46%
CNc1ccn2cc(-c3ccccc3O)nc2c1 [Example 120, 2-(7-Methylamino-imidazo[1,2-a]pyridin-2-yl)-phenol] | 20%
CNc1ccn2cc(-c3nc4ccccc4n3C)nc2c1 [Example 121, Methyl-[2-(1-methyl-1H-benzoimidazol-2-yl)-imidazo[1,2-a]pyridin-7-yl]-amine] | 19%
CNc1ccn2cc(-c3cccc(C(=O)OC)c3)nc2c1 [Example 122, Methyl 3-[7-(methylamino)imidazo[1,2-a]pyridin-2-yl]benzoate] | 20%
CNc1ccn2cc(-c3cccc(CO)c3)nc2c1 [Example 123, [3-[7-(Methylamino)imidazo[1,2-a]pyridin-2-yl]phenyl]methanol] | 23%
FCCOc1ccc(-c2cn3ccc(NC4CC4)cc3n2)cc1 [Example 124, N-Cyclopropyl-2-[4-(2-fluoroethoxy)phenyl]imidazo[1,2-a]pyridin-7-amine] | 39%
FCCCOc1ccc(-c2cn3ccc(N4CCC4)cc3n2)cc1 [Example 125, 7-(Azetidin-1-yl)-2-[4-(3-fluoropropoxy)phenyl]imidazo[1,2-a]pyridine] | 32%
CNc1ccn2cc(-c3cccnc3)nc2c1 [Example 126, Methyl-(2-pyridin-3-yl-imidazo[1,2-a]pyridin-7-yl)-amine] | 12%
COc1ccc(-c2cn3ccc(N4CC4C)cc3n2)cc1 (stereo not drawn) [Example 138, 2-(4-methoxyphenyl)-7-(2-methylaziridin-1-yl)imidazo[1,2-a]pyridine] | 44%

Continued, values first:

% displacement of [3H]T808 (10 nM) at 10 nM | Structure (SMILES)
26% | CNc1ccn2cc(-c3ccc(Cl)s3)nc2c1 [Example 127, N-[2-(5-Chloro-thiophen-2-yl)-imidazo[1,2-a]pyridin-7-yl]-methyl-amine]
34% | CNc1ccn2cc(-c3cc(C)ccc3O)nc2c1 [Example 128, 4-Methyl-2-(7-methylamino-imidazo[1,2-a]pyridin-2-yl)-phenol]
50% | CNc1ccn2cc(-c3cnn(C)c3)nc2c1 [Example 129, Methyl-[2-(1-methyl-1H-pyrazol-4-yl)-imidazo[1,2-a]pyridin-7-yl]-amine]
40% | CNc1ccn2cc(-c3cccc(COC)c3)nc2c1 [Example 130, 2-[3-(Methoxymethyl)phenyl]-N-methyl-imidazo[1,2-a]pyridine-7-amine HCl adduct]
43% | CNc1ccn2cc(-c3ccc(NCCF)cc3)nc2c1 [Example 131, 2-(4-(2-fluoroethylamino)phenyl)-N-methylimidazo[1,2-a]pyridin-7-amine]
38% | COc1ccc(-c2cn3ccc(NCCCF)cc3n2)cc1 [Example 132, N-(3-fluoropropyl)-2-(4-methoxyphenyl)imidazo[1,2-a]pyridin-7-amine]
40% | CNc1ccn2cc(-c3cccc(OCF)c3)nc2c1 [Example 133, 2-(3-(fluoromethoxy)phenyl)-N-methylimidazo[1,2-a]pyridin-7-amine]
21% | COc1ccc(-c2cn3ccc(NC(C)CO)cc3n2)cc1 (stereo not drawn) [Example 134, 2-(2-(4-methoxyphenyl)imidazo[1,2-a]pyridin-7-ylamino)propan-1-ol]
14% | COc1cc(-c2cn3ccc(NCCF)cc3n2)ccc1C [Example 135, N-(2-fluoroethyl)-2-(3-methoxy-4-methylphenyl)imidazo[1,2-a]pyridin-7-amine]
20% | CNc1ccn2cc(-c3cccc(SC)c3)nc2c1 [Example 136, N-methyl-2-(3-(methylthio)phenyl)imidazo[1,2-a]pyridin-7-amine]
41% | CNc1ccn2cc(-c3cccc(OCCF)c3)nc2c1 [Example 137, 2-(3-(2-fluoroethoxy)phenyl)-N-methylimidazo[1,2-a]pyridin-7-amine]
5% | CNc1ccn2cc(-c3cccc(OCCCF)c3)nc2c1 [Example 139, 2-(3-(3-fluoropropoxy)phenyl)-N-methylimidazo[1,2-a]pyridin-7-amine]
23% | FCCOc1cccc(-c2cn3ccc(N4CCC4)cc3n2)c1 [Example 140, 7-(azetidin-1-yl)-2-(3-(2-fluoroethoxy)phenyl)imidazo[1,2-a]pyridine]
35% | CNc1ccn2cc(-c3ccc(N4CCC(F)CC4)cc3)nc2c1 [Example 141, 2-(4-(4-fluoropiperidin-1-yl)phenyl)-N-methylimidazo[1,2-a]pyridin-7-amine]
11% | COc1cc(-c2cn3ccc(NCCF)cc3n2)ccc1O [Example 142, 4-(7-(2-fluoroethylamino)imidazo[1,2-a]pyridin-2-yl)-2-methoxyphenol]
23% | FCCNc1ccn2cc(-c3ccc4c(c3)OCCO4)nc2c1 [Example 143, 2-(2,3-dihydrobenzo[b][1,4]dioxin-6-yl)-N-(2-fluoroethyl)imidazo[1,2-a]pyridin-7-amine]
27% | FCCOCCOc1ccc(-c2cn3ccc(N4CCC4)cc3n2)cc1 [Example 144, 7-(azetidin-1-yl)-2-(4-(2-(2-fluoroethoxy)ethoxy)phenyl)imidazo[1,2-a]pyridine]
29% | Oc1ccc(-c2cn3ccc(NCCF)cc3n2)cc1 [Example 145, 4-(7-(2-fluoroethylamino)imidazo[1,2-a]pyridin-2-yl)phenol]
33% | Oc1cccc(-c2cn3ccc(NCCF)cc3n2)c1 [Example 146, 3-(7-(2-fluoroethylamino)imidazo[1,2-a]pyridin-2-yl)phenol]
23% | FCCNc1ccn2cc(-c3ccc(N4CCOCC4)cc3)nc2c1 [Example 147, N-(2-Fluoroethyl)-2-(4-morpholin-4-ylphenyl)imidazo[1,2-a]pyridin-7-amine]
20% | FCCCOc1ccc(-c2cn3ccc(NC4CC4)cc3n2)cc1 [Example 148, N-Cyclopropyl-2-[4-(3-fluoropropoxy)phenyl]imidazo[1,2-a]pyridin-7-amine]
23% | FCCNc1ccn2cc(-c3ccco3)nc2c1 [Example 149, N-(2-Fluoroethyl)-2-(furan-2-yl)imidazo[1,2-a]pyridin-7-amine]

tested on: tau aggregates; test: Autoradiography of tritiated radioligands on human cortical brain sections (Braak V AD patient); format: binding; conditions: radioligand 1.8 (ex. 62), 2.8 (ex. 64), 3.7 (ex. 61), 2.7 nM (ex. 63)
Procedure: The radioligand concentrations were 1.8, 2.8, 3.7 and 2.7 nM, respectively.

Structure (SMILES) | autoradiogram staining pattern
[3H]CNc1ccn2cc(-c3ccc(OCF)cc3)nc2c1 [Example 61, [^3H]-[2-(4-Fluoromethoxy-phenyl)-imidazo[1,2-a]pyridin-7-yl]-methyl-amine] | punctate staining of tau aggregates in a layered distribution pattern
